Results on 34 compounds are retold here after PubChem BioAssay AID743395 (Broad Institute, 2014).

In the experiment the test system is HepG2 viability, CellTiter-Glo ATP luminescence, 72 h. Nature of the experiment: viability loss in human hepatoma cells – cell-based, CellTiter-Glo luminescence, cherry-pick, set 2, cytotoxicity control, dose response (AID 743395). A general note: Cellular ATP, detected with luciferase, serves as a proxy for viable cell number.

As for `Nc1sc(-c2ccccc2)cc1-c1n[nH]c(=S)n1C1CCCCC1`, the AC35 was 7.54 µM.
As for `Oc1ccc2ccccc2c1N=Nc1nccs1`, the AC35 was 11.3 µM.
In the case of `N=C1/C(=C/c2cccn2CCOc2ccccc2)C(=O)N=C2SC=C(c3ccccc3)N12`, the AC35 is 19.3 µM.
As to `CCSC(=O)N1c2ccc(OC)cc2C=CC1C#N` (centres undefined), the AC35 is 7.54 µM.
The value for `O=C(C1CC1)N1CC(=O)N2[C@H](CO)[C@@H](c3ccc(-c4ccccc4F)cc3)[C@@H]2C1` was 18.9 µM; that for `COc1c(C=O)c2c(c(OC)c1OC)-c1ccc(OC)c(=O)cc1C(NC(C)=O)CC2` (centres undefined) was 3.12 µM.
For the compound `COc1cc(C(=O)Nc2ccc3c(c2)CCN3C(C)=O)cc(OC)c1OC`, the AC35 was 3.94 µM.
For the compound `Cc1cccc(NS(=O)(=O)c2ccc(-c3cnc(C4CC4)o3)cc2)c1`, the AC35 was 5.11 µM.
Next, `CC1=NN(c2ccccc2)C(=O)C1N=Nc1cccc(O)c1` (centres undefined): 19 µM; `C[C@@H]1CN([C@H](C)CO)C(=O)c2cc(NS(=O)(=O)c3ccc(Cl)cc3)ccc2O[C@@H]1CN(C)Cc1ccc(-c2ccccc2)cc1`: 16.8 µM.
In the case of `O=C1c2ccc3c4c(ccc(c24)C(=O)N1CCCCO)C(=O)N(CCCCO)C3=O`, the AC35 is 2.63 µM.
Next, `O=C(N/N=C/c1cc(Br)cc(Cl)c1O)c1ccc2c(c1)OCO2`: 10.6 µM.
Next, `COc1ccc(-c2ccc3c(c2)[C@H]2[C@H](CCN2S(=O)(=O)c2ccc(OC)cc2)[C@H](CO)N3C)cc1`: 6.5 µM; `c1ccc2c(c1)C1=NCCN1c1ccccc1-2`: 3.01 µM.
Next, `CC1=C/C(=C\C=C(C#N)C#N)N(C)c2ccccc21`: 21.3 µM; `O=C(C1CCCC1)N1CC(=O)N2[C@H](CO)[C@@H](c3ccc(-c4ccccc4F)cc3)[C@@H]2C1`: 16.3 µM; `CCOC(=O)c1c(C)[nH]c(C(=O)N/N=C/c2ccc(OC)c(OC)c2)c1C`: 6.01 µM.
As for `COc1cccc(C2c3cc4c(cc3OC(NNC(N)=O)C2C)OCO4)c1O` (centres undefined), the AC35 is 14.3 µM.
For the compound `Nc1ccn(C2OC(CO)C(O)C2O)c(=O)n1` (centres undefined), the AC35 was 6.2 µM.
`C[C@@H]1CCCCO[C@H](CN(C)Cc2ccc(Cl)c(Cl)c2)[C@@H](C)CN([C@@H](C)CO)C(=O)c2cc(NS(=O)(=O)c3ccc(Cl)cc3)ccc2O1`: the AC35 is 10.6 µM.
Next, `CCOc1ccc(C(=O)COC(=O)Cc2n[nH]c(=O)c3ccccc23)cc1`: 19.3 µM; `Cc1nn(S(=O)(=O)c2ccc(Cl)cc2)c(C)c1Sc1ccc([N+](=O)[O-])cc1`: 21.8 µM.
The value for `Cc1ccc2c(C)c3ccc4ccccc4c3c[n+]2c1` was 5.47 µM; that for `CC(C)C[C@H]1CN([C@@H](Cc2ccc(O)cc2)CN2CCC[C@H]2CN2C(=O)C(=O)NC[C@@H]2Cc2ccccc2)C(=O)C(=O)N1CC1CCCCC1` was 15 µM; that for `COC(=O)c1ccc(/C=C/c2c(-c3ccc(OC)cc3)oc3ccc(N4CCOCC4)cc23)cc1` was 16 µM.
Turning to `N#Cc1ccc(-c2cccs2)nc1SCc1cccnc1`, the AC35 was 0.671 µM.
On to `COc1ccc(CNC(=O)c2c(C)oc3c2C(=O)c2ccccc2C3=O)cc1`, for which the AC35 was 2.36 µM.
Take `CC1(C(=O)NCc2ccco2)Cc2c(-c3ccc4c(c3)OCO4)ccnc2O1` (centres undefined): the AC35 is 9.85 µM.
Consider `CCC1=C(CC2NCCc3ccccc32)CC2c3cc(OC)c(OC)cc3CCN2C1` (centres undefined), for which the AC35 was 18.2 µM.
Consider `N#CC(C#N)=C1C=C2C=C(N3CCCCCC3)CCC2CC1` (centres undefined), for which the AC35 is 18 µM.
The value for `Cc1cc(/C=N/n2c(COc3ccccc3C)nc3ccccc3c2=O)c(O)c([N+](=O)[O-])c1` was 8.05 µM.
In the case of `CN1c2ccc(-c3ccc(F)cc3)cc2[C@H]2[C@H](CCN2S(=O)(=O)c2ccc(F)cc2)[C@H]1CO`, the AC35 was 19.5 µM.
`CCOC(=O)c1c(NC(=O)C2c3ccccc3Oc3ccccc32)sc(C(C)=O)c1C`: the AC35 is 17.6 µM.
The value for `C[C@@H]1O[C@@H](O[C@@H]2C=C3CC[C@@H]4C(CC[C@]5(C)[C@@H](c6ccc(=O)oc6)CC[C@]45O)[C@@]3(C)CC2)[C@H](O)[C@H](O)[C@H]1O` (some centres undefined) was 0.116 µM.
